Tests used:
Format in all cases: cell-based
[1] = tested on: Staphylococcus epidermidis 270; assay: MIC, standard broth micro-dilution assay, SE 270
Experimental: (§1) The antibacterial efficacy of the present compounds is illustrated by Table III. The minimal inhibitory concentrations (MICs) were determined using a standard broth micro-dilution assay.

[2] = tested on: Staphylococcus haemolyticus 415; assay: MIC, standard broth micro-dilution assay, SH 415
Experimental: as §1

[3] = tested on: Haemophilus influenzae RD; assay: MIC, standard broth micro-dilution assay, HFRD
Experimental: as §1

[4] = tested on: Staphylococcus aureus 447; assay: MIC, standard broth micro-dilution assay, SA 447
Experimental: as §1

[5] = tested on: Enterococcus faecium 180-1; assay: MIC, standard broth micro-dilution assay, EF 180-1
Experimental: as §1

[6] = tested on: Staphylococcus aureus 491; assay: MIC, standard broth micro-dilution assay, SA 491
Experimental: as §1

[7] = tested on: Enterococcus faecalis 2041; assay: MIC, standard broth micro-dilution assay, EF 2041
Experimental: as §1

[8] = tested on: Escherichia coli EC14; assay: MIC, standard broth micro-dilution assay, EC 14
Experimental: as §1

[9] = tested on: Staphylococcus aureus 489; assay: MIC, standard broth micro-dilution assay, SA 489
Experimental: as §1

[10] = tested on: Staphylococcus aureus SA1199A; assay: MIC, standard broth micro-dilution assay, SA 1199A
Experimental: as §1

[11] = tested on: Enterococcus faecalis 276; assay: MIC, standard broth micro-dilution assay, EF 276
Experimental: as §1

[12] = tested on: Staphylococcus aureus S13E
Experimental: as §1

[13] = tested on: Enterococcus gallinarum 245; assay: MIC, standard broth micro-dilution assay, EG 245
Experimental: as §1

[14] = tested on: Staphylococcus aureus X400; assay: MIC, standard broth micro-dilution assay, SA X400
Experimental: as §1

[15] = tested on: Staphylococcus aureus SA1199; assay: MIC, standard broth micro-dilution assay, SA 1199
Experimental: as §1

[16] = tested on: Resistant Enterococcus faecium and faecalis; assay: MIC, standard broth micro-dilution assay, Resistant; conditions: geometric mean of 4-6 isolates
Experimental: as §1

[17] = tested on: Staphylococcus aureus 446; assay: MIC, standard broth micro-dilution assay, SA 446
Experimental: as §1

[18] = tested on: Sensitive Enterococcus faecium and faecalis; assay: MIC, standard broth micro-dilution assay, Sensitive; conditions: geometric mean of 4-6 isolates
Experimental: as §1

[19] = tested on: Staphylococcus haemolyticus 105; assay: MIC, standard broth micro-dilution assay, SH 105
Experimental: as §1

[20] = tested on: Staphylococcus aureus X778; assay: MIC, standard broth micro-dilution assay, SA X778
Experimental: as §1

[21] = tested on: Enterococcus faecium 180; assay: MIC, standard broth micro-dilution assay, EF 180
Experimental: as §1

## CC(C)CCC(=O)NC1C(=O)NC(CC(N)=O)C(=O)NC2C(=O)NC3C(=O)NC(C(=O)NC(C(=O)O)c4cc(O)cc(O)c4-c4cc3ccc4O)C(OC3CC(C)(N)C(O)C(C)O3)c3ccc(c(Cl)c3)Oc3cc2cc(c3OC2OC(CO)C(O)C(O)C2OC2CC(C)(NCc3ccc(-c4ccc(Cl)cc4)cc3)C(O)C(C)O2)Oc2ccc(cc2Cl)C1O (stereo not drawn) [Example 7, N^1-(4-methyl-n-pentanoyl)-N^DISACC-[p-(p-chlorophenyl)benzyl]desleucylA82846B]
[1]
  minimal inhibitory concentration (MIC), SE 270: ≦.06
[2]
  minimal inhibitory concentration (MIC), SH 415: 1
[3]
  minimal inhibitory concentration (MIC), HFRD: 64
[4]
  minimal inhibitory concentration (MIC), SA 447: 0.5
[5]
  minimal inhibitory concentration (MIC), EF 180-1: ≦.06
[6]
  minimal inhibitory concentration (MIC), SA 491: 0.125
[7]
  minimal inhibitory concentration (MIC), EF 2041: ≦.06
[8]
  minimal inhibitory concentration (MIC), EC 14: >64
[9]
  minimal inhibitory concentration (MIC), SA 489: 1
[10]
  minimal inhibitory concentration (MIC), SA 1199A: ≦.06
[11]
  minimal inhibitory concentration (MIC), EF 276: ≦.06
[12]
  minimal inhibitory concentration (MIC), SA S13E: 0.5
[13]
  minimal inhibitory concentration (MIC), EG 245: ≦.06
[14]
  minimal inhibitory concentration (MIC), SA X400: 0.5
[15]
  minimal inhibitory concentration (MIC), SA 1199: 1
[16]
  minimal inhibitory concentration (MIC), Resistant: 3.4
[17]
  minimal inhibitory concentration (MIC), SA 446: 0.5
[18]
  minimal inhibitory concentration (MIC), Sensitive: 0.22
[19]
  minimal inhibitory concentration (MIC), SH 105: ≦.06
[20]
  minimal inhibitory concentration (MIC), SA X778: 1
[21]
  minimal inhibitory concentration (MIC), EF 180: 1

## CC1OC(OC2c3ccc(c(Cl)c3)Oc3cc4cc(c3OC3OC(CO)C(O)C(O)C3OC3CC(C)(NCc5ccc(-c6ccccc6)cc5)C(O)C(C)O3)Oc3ccc(cc3Cl)C(O)C(NC(=O)C(Cc3ccc(Cl)cc3)NC(=O)OC(C)(C)C)C(=O)NC(CC(N)=O)C(=O)NC4C(=O)NC3C(=O)NC2C(=O)NC(C(=O)O)c2cc(O)cc(O)c2-c2cc3ccc2O)CC(C)(N)C1O [Example 28, N^1-[N-BOC-L-3-(p-chlorophenyl)alanine] derivative of N^DISACC-(p-phenylbenzyl)desleucylA82846B]
[1]
  minimal inhibitory concentration (MIC), SE 270: 1
[2]
  minimal inhibitory concentration (MIC), SH 415: 4
[3]
  minimal inhibitory concentration (MIC), HFRD: >64
[4]
  minimal inhibitory concentration (MIC), SA 447: 2
[5]
  minimal inhibitory concentration (MIC), EF 180-1: 0.5
[6]
  minimal inhibitory concentration (MIC), SA 491: 2
[7]
  minimal inhibitory concentration (MIC), EF 2041: 2
[8]
  minimal inhibitory concentration (MIC), EC 14: >64
[9]
  minimal inhibitory concentration (MIC), SA 489: 1
[10]
  minimal inhibitory concentration (MIC), SA 1199A: 1
[11]
  minimal inhibitory concentration (MIC), EF 276: 1
[12]
  minimal inhibitory concentration (MIC), SA S13E: 2
[13]
  minimal inhibitory concentration (MIC), EG 245: 2
[14]
  minimal inhibitory concentration (MIC), SA X400: 2
[15]
  minimal inhibitory concentration (MIC), SA 1199: 2
[16]
  minimal inhibitory concentration (MIC), Resistant: 13
[17]
  minimal inhibitory concentration (MIC), SA 446: 4
[18]
  minimal inhibitory concentration (MIC), Sensitive: 1.7
[19]
  minimal inhibitory concentration (MIC), SH 105: 2
[20]
  minimal inhibitory concentration (MIC), SA X778: 1
[21]
  minimal inhibitory concentration (MIC), EF 180: 2

## CC(C)CC(N)C(=O)NC1C(=O)NC(CC(N)=O)C(=O)NC2C(=O)NC3C(=O)NC(C(=O)NC(C(=O)O)c4cc(O)cc(O)c4-c4cc3ccc4O)C(OC3CC(C)(N)C(O)C(C)O3)c3ccc(c(Cl)c3)Oc3cc2cc(c3OC2OC(CO)C(O)C(O)C2O)Oc2ccc(cc2Cl)C1O [Example 37, N^1-D-leucine derivative of desepivancosaminyl-desleucylA82846B]
[1]
  minimal inhibitory concentration (MIC), SE 270: 0.5
[2]
  minimal inhibitory concentration (MIC), SH 415: 4
[3]
  minimal inhibitory concentration (MIC), HFRD: 64
[4]
  minimal inhibitory concentration (MIC), SA 447: 1
[5]
  minimal inhibitory concentration (MIC), EF 180-1: 0.25
[6]
  minimal inhibitory concentration (MIC), SA 491: 0.5
[7]
  minimal inhibitory concentration (MIC), EF 2041: 0.5
[8]
  minimal inhibitory concentration (MIC), EC 14: >64
[9]
  minimal inhibitory concentration (MIC), SA 489: 0.25
[10]
  minimal inhibitory concentration (MIC), SA 1199A: 0.125
[11]
  minimal inhibitory concentration (MIC), EF 276: 0.25
[12]
  minimal inhibitory concentration (MIC), SA S13E: 0.25
[13]
  minimal inhibitory concentration (MIC), EG 245: 0.5
[14]
  minimal inhibitory concentration (MIC), SA X400: 0.25
[15]
  minimal inhibitory concentration (MIC), SA 1199: 0.5
[16]
  minimal inhibitory concentration (MIC), Resistant: >32
[17]
  minimal inhibitory concentration (MIC), SA 446: 0.5
[18]
  minimal inhibitory concentration (MIC), Sensitive: 0.87
[19]
  minimal inhibitory concentration (MIC), SH 105: 0.25
[20]
  minimal inhibitory concentration (MIC), SA X778: 0.25
[21]
  minimal inhibitory concentration (MIC), EF 180: >64

From patent publication US6670446B1, “N1 modified glycopeptides” (Eli Lilly and Company, priority 1998, dated 2003)
